Data set [1] has as its target T1, Melanin-concentrating hormone receptor 1 (Homo sapiens, UniProt Q99705). Put plainly: Concentration required to inhibit binding of [125I]MCH radioligand to human Melanin-concentrating hormone receptor 1 in IMR-32 I3.4.2 cell membranes.
The target of data set [2] is T1, Melanin-concentrating hormone receptor 1. Put plainly: Concentration required to inhibit 50% of melanin-concentrating hormone induced [Ca2+] flux in IMR-32 cells measured by using a fluorometric imaging plate reader. Type of data set: functional, cell-based.
Data set [3] in a line: Brain/plasma ratio was determined in diet-induced obese (DIO) mice. Type of data set: ADME, cell-free. Particulars: mouse, brain and plasma.
Data set [4] can be described thus: Area under curve in brain was determined in diet-induced obese (DIO) mice. The following applies: mouse, in vivo. In kind it is ADME, tissue-based.
Data set [5] can be described thus: Maximum concentration in plasma was determined at the peroral dose of 10 mg/kg in diet-induced obese (DIO) mice; unit may be ng/mL or ng/g. Type of data set: ADME, organism-based. Set-up: dose 10 mg/kg, route oral. Particulars: mouse, po.
Data set [6] in a line: Area under curve in brain was determined at the peroral dose of 10 mg/kg in diet-induced obese (DIO) mice; unit may be ng.h/mL or ng.h/g. In kind it is ADME, organism-based. More on the design: dose 10 mg/kg, route oral. The following applies: mouse, in vivo, po.
The nature of data set [7]: Half life in brain was determined at the peroral dose of 10 mg/kg in diet-induced obese (DIO) mice. Set-up: dose 10 mg/kg, route oral. Type of data set: ADME, organism-based. Particulars: mouse, po.
Data set [8] in a line: Half life in plasma was determined at the peroral dose of 10 mg/kg in diet-induced obese (DIO) mice. More on the design: dose 10 mg/kg, route oral. Particulars: mouse, po. Type of data set: ADME, organism-based.
Data set [9] can be described thus: Area under curve in plasma was determined at the peroral dose of 10 mg/kg in diet-induced obese (DIO) mice; unit may be ng.h/mL or ng.h/g. Particulars: mouse, in vivo, po. Set-up: dose 10 mg/kg, route oral. In kind it is ADME, organism-based.
A short description of data set [10]: Maximum concentration in brain was determined at the peroral dose of 10 mg/kg in diet-induced obese (DIO) mice; unit may be ng/mL or ng/g. Type of data set: ADME, organism-based. Particulars: mouse, po. More on the design: dose 10 mg/kg, route oral.

Molecules are shown by their SMILES. A value given as a limit tells only on which side of the number the result lay.

T1 sequence (Q99705 whole entry): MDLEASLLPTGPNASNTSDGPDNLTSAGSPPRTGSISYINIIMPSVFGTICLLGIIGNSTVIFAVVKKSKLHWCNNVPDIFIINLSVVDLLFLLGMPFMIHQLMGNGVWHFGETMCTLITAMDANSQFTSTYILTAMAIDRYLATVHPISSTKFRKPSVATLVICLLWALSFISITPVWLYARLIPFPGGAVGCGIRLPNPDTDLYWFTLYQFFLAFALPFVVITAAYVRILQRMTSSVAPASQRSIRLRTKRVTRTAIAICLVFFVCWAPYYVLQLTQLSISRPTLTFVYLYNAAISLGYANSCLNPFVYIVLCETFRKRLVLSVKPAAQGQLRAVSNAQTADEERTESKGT

In the case of `CC(C)Cc1ccc(N2CCC(Oc3cccc4ccc(NCc5ccc(-c6cccc(C(F)(F)F)c6)o5)nc34)C2)cc1` (stereo not drawn), the IC50 in [1] and in data set [2] was 0.041 µM throughout.
Turning to `Nc1ccc2cccc(OCCCNCc3ccc(Cl)c(C(F)(F)F)c3)c2n1`, the Kp (usually the ratio of the level in a tissue or fluid to that in plasma or blood) in data set [3] is 0.96. For the same molecule, in [4], the AUC (usually concentration integrated over time) worked out at 9520 ng·h/mL.
Take `CC(C)(C)c1ccc(CN2CC[C@H](Oc3cccc4ccc(N)nc34)C2)cc1`: the values for the IC50 in data set [1] and in [2] were 0.001 µM and 0.03 µM, respectively.
On the same counts, the results for `Nc1ccc2cccc(O[C@H]3CCN(C(=O)c4ccc5c(c4)OCO5)C3)c2n1` are 0.73 µM and 9.14 µM.
In the case of `Nc1ccc2cccc(O[C@@H]3CCN(Cc4ccc5c(c4)OCO5)C3)c2n1`, the IC50 (as a rule, the concentration needed to halve the response being measured) in [1] was 0.07 µM; in [2] it was 1.6 µM.
With `Nc1ccc2cccc(O[C@@H]3CCN(c4ccc5c(c4)OC(F)(F)O5)C3)c2n1`, the figures for the IC50 in data set [1] and in data set [2] were 0.0386 µM and 0.531 µM, respectively.
On the same counts, the results for `CCC(c1ccccc1)N1CCC(Oc2cccc3ccc(N)nc23)C1` (stereo not drawn) are 0.0205 µM and 0.224 µM.
For `CC(=O)Nc1ccc(CN2CC[C@H](Oc3cccc4ccc(N)nc34)C2)cc1`, the IC50 amounted to 0.09 µM in [1] and 1.26 µM in data set [2].
On to `Nc1ccc2cccc(O[C@H]3CCN(Cc4ccc5c(c4)OCO5)C3)c2n1`, for which the figures for the peak concentration (Cmax) in [5] and in data set [10] were 543 ng/mL and 183 ng/mL, respectively. Further, the IC50 was determined as 0.07 µM in [1] and 0.03 µM in [2]. The AUC in data set [6] turned out to be 1710 ng·h/mL; in data set [9], 1350 ng·h/mL. The values for the half-life in [7] and in data set [8] were 8.3 h and 6.5 h, respectively.
`CC(C)Cc1ccc(N2CCC(Oc3cccc4ccc(NCC5CC5)nc34)C2)cc1` (stereo not drawn): the figures for the IC50 in [1] and in data set [2] were 0.149 µM and more than 10 µM, respectively.
`Nc1ccc2cccc(OCCCNC(=O)c3cccc(Cl)c3)c2n1`: in [3], the Kp is 0.03. The same molecule gave an IC50 in data set [2] of 0.007 µM. The same molecule had an exposure (AUC) in [4] of 11 ng·h/mL.
As to `Nc1ccc2cccc(OC3CCN(c4ccc5c(c4)OCCO5)C3)c2n1` (stereo not drawn), the IC50 in data set [1] is 0.0027 µM; in data set [2], 0.051 µM.
On the same counts, the results for `CN(C)c1ccc2cccc(OC3CCN(c4ccc5c(c4)OCO5)C3)c2n1` (stereo not drawn) are more than 2 µM and more than 10 µM.
Regarding `CC(C)Cc1ccc(N2CCC(Oc3cccc4ccc(N)nc34)C2)cc1` (stereo not drawn), the IC50 in data set [1] was 0.0012 µM; in data set [2], 0.0533 µM.
Regarding `CC(C)(C)c1ccc(S(=O)(=O)N2CC[C@H](Oc3cccc4ccc(N)nc34)C2)cc1`, the concentration for half-maximal inhibition (IC50) came to 0.21 µM in data set [1] and 1.14 µM in data set [2].
With `Nc1ccc2cccc(O[C@H]3CCN(Cc4ccccc4)C3)c2n1`, the IC50 in data set [1] is 0.12 µM; in data set [2] it was 1.69 µM.
On the same counts, the results for `CNc1ccc2cccc(OC3CCN(c4ccc5c(c4)OCCO5)C3)c2n1` (stereo not drawn) are 0.0256 µM and 0.244 µM.
With `Nc1ccc2cccc(O[C@@H]3CCN(Cc4ccccc4)C3)c2n1`, the IC50 in data set [1] is 0.58 µM; in data set [2] it was more than 10 µM.
On the same counts, the results for `CC(Cc1ccc2c(c1)OCO2)N1CCC(Oc2cccc3ccc(N)nc23)C1` (stereo not drawn) are 0.0022 µM and 0.0792 µM.
`Nc1ccc2cccc(OC3CCN(c4ccc5c(c4)OC(F)(F)O5)C3)c2n1` (stereo not drawn): the Cmax (commonly the highest concentration seen after dosing) in data set [5] turned out to be 331 ng/mL; in data set [10], 2860 ng/mL. Besides, the IC50 in data set [1] worked out at 0.0009 µM; in data set [2] it was 0.0224 µM. In addition, the area under the curve (AUC) in [6] was determined as 17700 ng·h/mL; in data set [9], 801 ng·h/mL. In addition, the values for the half-life in data set [7] and in data set [8] were 5.1 h and 4.6 h, respectively.

The values are drawn from ChEMBL document CHEMBL1137036, “Synthesis and evaluation of 2-amino-8-alkoxy quinolines as MCHr1 antagonists. Part 3” (Bioorg Med Chem Lett, 2004).
